{
  "source": "patent US20080207505A1",
  "about": "“Bna Conjugates and Methods of Use” (priority 2005, published 2008)",
  "tested_on": "normal dogs",
  "test": "Oral administration of hBNP-021 versus native hBNP in normal dogs (randomized crossover)",
  "settings": "dog, oral 350 ug/kg",
  "procedure": "Immediately prior to oral dosing, the powder (either hBNP or hBNP conjugate) was dissolved in a buffered formulation to a concentration of 1.25 mg/mL.\nMAP and blood samplings were repeated at 10, 30, 60, 120, 180, and 240 minutes after oral administration. Blood samples were collected in pre-chilled EDTA tubes and immediately placed on ice and centrifuged at −4° C. Plasma was stored at −80° C. until analysis. After extraction, plasma cANP, cBNP, hBNP and cGMP were assessed by radioimmunoassay as previously described (Saito, Y. et al. 1989; Kambayashi, Y. et al, 1990).\nResults are expressed as mean ±SEM. Data were assessed by 1-way ANOVA for comparisons within groups followed by post hoc Dunnett's test. Two-way ANOVA was used for comparisons between groups, followed by Bonferroni posttest. Student's paired t test was performed for single comparisons between groups (Graph-Pad Prism software 4.0). Statistical significance was accepted at a value of P<0.05.",
  "data": [
    {"compound": "CC[C@H](C)[C@@H]1NC(=O)[C@H](CCCNC(=N)N)NC(=O)[C@H](CC(=O)O)NC(=O)[C@H](CCSC)NC(=O)[C@H](CCCCN)NC(=O)[C@H](CCCNC(=N)N)NC(=O)CNC(=O)[C@H](Cc2ccccc2)NC(=O)[C@@H](NC(=O)CNC(=O)[C@H](CO)NC(=O)CNC(=O)[C@H](CCC(N)=O)NC(=O)[C@@H](NC(=O)[C@H](CCSC)NC(=O)[C@H](CCCCN)NC(=O)[C@@H]2CCCN2C(=O)[C@@H](N)CO)C(C)C)CSSC[C@@H](C(=O)N[C@@H](CCCCN)C(=O)N[C@H](C(=O)N[C@@H](CC(C)C)C(=O)N[C@@H](CCCN=C(N)N)C(=O)N[C@@H](CCCN=C(N)N)C(=O)N[C@@H](Cc2cnc[nH]2)C(=O)O)C(C)C)NC(=O)CNC(=O)[C@H](CC(C)C)NC(=O)CNC(=O)[C@H](CO)NC(=O)[C@H](CO)NC(=O)[C@H](CO)NC(=O)[C@H](CO)NC1=O", "note": "[Native hBNP, reference compound]", "values": [
      {"measurement": "plasma hBNP after oral administration", "value": "detected in lower levels"}
    ]}
  ]
}
